According to patent US20100255127A1, “AROMATASE INHIBITOR” (KRACIE PHARMA, LTD., priority 2007, published 2010):

Biological target: T1, aromatase (CYP19) (Homo sapiens, UniProt P11511)
T1 construct: purchased BD Biosciences Inc. (U.S.A.)
T1 sequence (P11511 1-503): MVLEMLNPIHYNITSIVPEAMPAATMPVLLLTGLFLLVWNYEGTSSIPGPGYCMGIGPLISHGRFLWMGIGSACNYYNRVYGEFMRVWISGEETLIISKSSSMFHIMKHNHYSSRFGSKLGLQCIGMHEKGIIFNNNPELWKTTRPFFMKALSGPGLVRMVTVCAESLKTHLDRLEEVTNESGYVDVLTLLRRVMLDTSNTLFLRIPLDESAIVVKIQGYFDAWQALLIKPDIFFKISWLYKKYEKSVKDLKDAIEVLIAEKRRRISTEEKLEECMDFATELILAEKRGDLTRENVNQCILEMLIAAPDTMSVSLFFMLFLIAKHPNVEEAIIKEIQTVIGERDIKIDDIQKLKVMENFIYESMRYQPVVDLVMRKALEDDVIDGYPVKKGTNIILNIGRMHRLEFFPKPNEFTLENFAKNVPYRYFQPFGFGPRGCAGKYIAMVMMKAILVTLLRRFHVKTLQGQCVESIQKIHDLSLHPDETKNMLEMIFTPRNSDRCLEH
Experiment: Measurement of aromatase-inhibitory activity (fluorometric HFC formation, 96-well microplate, BD Biosciences reagents)
Type: biochemical
Settings: for inhibition at 0.18 µM: concentration 0.18 μM; for inhibition at 0.18 µM / inhibition at 0.53 µM / inhibition at 1.6 µM / inhibition at 4.8 µM: average of three experiments, read-out: Inhibitory rate; for inhibition at 0.53 µM: concentration 0.53 μM; for inhibition at 1.6 µM: concentration 1.60 μM; for inhibition at 4.8 µM: concentration 4.80 μM; for IC50: text b76, components
Method: That is, by using a 96-well microplate, after 144 μL of a previously prepared NADPH-producing system solution (NADPH-Cofactor Mix) and 6 μL of an extract solution of test samples were mixed, and incubated at 37° C. for 10 minutes. Then, 100 μL of a solution (Enzyme Substrate Mix) containing an enzyme and a substrate was mixed with the above mixture, and reacted at 37° C. for 30 minutes. Thereafter, 75 μL of a reaction-terminating solution was added to the above, and an amount of a formed HFC (7-hydroxy-4-trifluoromethyl coumarin) which is a metabolite of the substrate was obtained by measuring a fluorescent intensity at an excitation wavelength of 409 nm and a fluorescent wavelength of 538 nm using a plate reader ([…]luor, TECAN). Incidentally, 75 μL of stop solution was added to a blank after incubation for 10 minutes, in place of adding the solution of enzyme and substrate. Aromatase inhibitory rate was calculated by the formula 1.
Aromatase inhibitory rate (%)={1−[…]}×100 [Numerical formula 1]
A=(Absorbance after enzymatic reaction without test sample−Absorbance of blank thereof) B=(Absorbance after enzymatic reaction with each test sample−Absorbance of each blank thereof)
Also, to avoid a non-specific inhibitory action (for example, protein coagulation action due to tannin), a control protein which incidents to the reagent was added to the NADPH-producing system solution.
With regard to solution of test sample, the concentration was stepwisely diluted and an inhibitory rate at each concentration was obtained, and from the results, the concentration of 50% inhibition (IC50 value) was obtained according to the interpolation method.

inhibition at 0.18 µM	inhibition at 0.53 µM	inhibition at 1.6 µM	inhibition at 4.8 µM	IC50	SMILES	aromatase-inhibitory activity, concentration dependency in words
30.4 ± 1.5%	48.1 ± 6.9%	63.5 ± 12.6%	67.7 ± 21.3%	754 nM	COc1ccc(-c2oc3c(CC=C(C)C)c(O[C@@H]4O[C@H](CO)[C@@H](O)[C@H](O)[C@H]4O)cc(O)c3c(=O)c2O[C@@H]2O[C@@H](C)[C@H](O)[C@@H](O)[C@H]2O)cc1 [Icariin, icariin]	
8.7 ± 9.3%	12.4 ± 4.6%	20.6 ± 1.2%	59.4 ± 7.1%	4860 nM	COc1cc(C2Oc3cc(C4Oc5cc(O)cc(O)c5C(=O)C4O)ccc3OC2CO)ccc1O (centres unmarked) [Silybin, silybin]	concentration-dependent inhibitory activity
